These results are taken from patent US20070185161A1, “Bicyclic substituted indole-derivative steroid hormone nuclear receptor modulators” (priority 2004, published 2007).

Some results are limits rather than exact numbers.

The term Ki denotes a dissociation constant, usually derived from enzyme kinetics or from competition with a known ligand.

In the first experiment the target is T1, human MR (Homo sapiens, UniProt P08235).
T1 construct: The full length human MR gene is cloned from a human kidney or human brain cDNA library; made in house; host or cells: SF9 insect cells (baculovirus)
T1 sequence (P08235 1-984): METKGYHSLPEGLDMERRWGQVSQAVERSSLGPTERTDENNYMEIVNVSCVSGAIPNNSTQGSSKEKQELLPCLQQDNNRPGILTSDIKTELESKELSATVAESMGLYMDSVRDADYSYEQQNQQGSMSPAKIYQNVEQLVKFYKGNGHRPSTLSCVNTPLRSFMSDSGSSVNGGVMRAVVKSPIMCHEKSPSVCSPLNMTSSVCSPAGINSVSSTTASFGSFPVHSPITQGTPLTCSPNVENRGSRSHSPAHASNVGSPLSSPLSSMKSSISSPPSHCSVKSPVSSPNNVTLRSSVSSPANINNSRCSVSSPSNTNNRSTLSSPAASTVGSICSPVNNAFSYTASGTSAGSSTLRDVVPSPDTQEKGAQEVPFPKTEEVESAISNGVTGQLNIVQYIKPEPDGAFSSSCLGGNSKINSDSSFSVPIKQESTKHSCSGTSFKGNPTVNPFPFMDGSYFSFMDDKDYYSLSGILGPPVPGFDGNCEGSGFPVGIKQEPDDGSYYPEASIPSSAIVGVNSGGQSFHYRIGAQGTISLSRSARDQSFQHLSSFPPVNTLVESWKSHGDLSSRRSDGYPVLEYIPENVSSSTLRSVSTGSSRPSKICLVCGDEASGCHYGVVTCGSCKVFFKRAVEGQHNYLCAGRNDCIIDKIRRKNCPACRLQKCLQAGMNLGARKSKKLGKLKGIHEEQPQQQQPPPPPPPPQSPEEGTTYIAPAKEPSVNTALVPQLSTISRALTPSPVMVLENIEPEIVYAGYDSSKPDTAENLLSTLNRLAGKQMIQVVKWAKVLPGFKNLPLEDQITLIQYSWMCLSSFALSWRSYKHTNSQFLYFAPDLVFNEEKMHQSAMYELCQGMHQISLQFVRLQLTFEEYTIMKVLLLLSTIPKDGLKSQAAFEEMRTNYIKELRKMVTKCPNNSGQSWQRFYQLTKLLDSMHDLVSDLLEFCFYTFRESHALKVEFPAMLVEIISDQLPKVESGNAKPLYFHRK
Description: Mineralocorticoid Receptor Binding Assay (Method 1). The conditions noted are these: [3H]-aldosterone, racemic mixture unless otherwise indicated. As to the method: The full length human MR gene is cloned from a human kidney or human brain cDNA library. Briefly, using synthetic oligonucleotide primers (Eli Lilly and Company, Indianapolis) directed to nucleotides 20-54 and 3700-3666 of the human MR, polymerase chain reaction (PCR) is performed under standard conditions using a human cDNA library. The PCR reaction is performed in a final volume of 50 μl containing about 1 μl of a 50× stock solution of polymerase; about 1 μl of a 50× stock solution of dNTP; about 5 μl of an appropriate PCR buffer; about 1 μl of each primer; about 5 μl of a H. kidney or H. brain cDNA library; and about 36 μl of water. The reaction is allowed to denature for about 30 seconds at 95 degrees Celsius, anneal for about 30 seconds at 55 degrees Celsius, and extend for about 5 minutes at 72 degrees Celsius, the sequence being repeated for a total of about 35 cycles. The desired PCR product (3.68 Kb) is confirmed by gel electrophoresis and subsequently cut from the gel and stored at about −20 degrees Celsius until extraction. To extract the cDNA product from the agarose gel, the QIAEX II Gel Extraction protocol (QIAGEN, Inc.) is employed according to the manufacturer's instructions. Following extraction, the MR cDNA is cloned into an appropriate cloning vector (Zero Blunt TOPO PCR Cloning Kit (Invitrogen, Inc.) and a pAcHLT-baculovirus transfer vector (B.D./Pharminogen), then expressed in SF9 insect cells, essentially according to manufacturer's instructions. Sf9 cells are grown at a scale where gram quantity cell pellets are obtained for subsequent use in the MR binding assay. Harvested cell pellets are lysed by repeated freeze-thaw cycles (about 4) in a suitable lysis buffer then centrifuged at about 1×10^3 G (with the supernatant being saved for future assays).
MR binding assays are performed in a final total volume of about 250 μl containing about 20-25 μg of protein and 0.5 nM of [^3H]-aldosterone plus varying concentrations of test compound or vehicle. The assay binding buffer consists of 30 mM sodium molybdate, 30 mM of TRIS-HCl, 5 mM sodium phosphate, 5 mM sodium pyrophosphate, and about 10% glycerol, pH=7.5.
Briefly, assays are prepared at RT in 96-well Falcon 3072 plates, each well containing 210 μl of binding buffer, 10 μl of [^3H]-aldosterone, 10 μl of test compound/vehicle, and 20 μl of the resuspended receptor protein extract. Incubations are carried out at 4 degrees Celsius with shaking for about 16 hours. 200 μl aliquots of each incubation are filtered onto Millipore HA 0.45 micron 96-well filter plates, pre-moistened with cold 30 mM TRIS-HCl. The filter plates are suctioned dry with vacuum and immediately washed 3× with cold 30 mM TRIS-HCl. The plates are then punched out and the amount of receptor-ligand complex is determined by liquid scintillation counting using 4 ml of Ready Protein Plus™ liquid scintillation cocktail.
IC50 values (defined as the concentration of test compound required to decrease [^3H]-aldosterone binding by 50%) are then determined. Ki values for each respective test compound can then be calculated by application of the Cheng-Prusoff equation as described in Cheng et al., Relationship Between The Inhibition Constant (Ki) and The Concentration of Inhibitor Which Causes 50% Inhibition (IC50) of an Enzymatic Reaction, Biochem. Pharmacol., 22: 3099-31088; (1973).
Take `CC1(c2c[nH]c3c(NS(C)(=O)=O)cccc23)CCCc2cc(F)cc(F)c21` (racemic) [Example 30, N-[3-(6,8-Difluoro-1-methyl-1,2,3,4-tetrahydro-naphthalen-1-yl)-1H-indol-7-yl]-methanesulfonamide]: the Ki is no more than 500 nM.

Turning to `CC1(c2c[nH]c3c(NS(C)(=O)=O)cccc23)CCCc2cc(F)cc(F)c21` (single isomer, unassigned) [Example 30A, N-[3-(6,8-Difluoro-1-methyl-1,2,3,4-tetrahydro-naphthalen-1-yl)-1H-indol-7-yl]-methanesulfonamide], the Ki is no more than 500 nM.

Consider `CC1(c2c[nH]c3c(NS(C)(=O)=O)cccc23)CCCc2cc(F)cc(F)c21` (single isomer, unassigned) [Example 30B, N-[3-(6,8-Difluoro-1-methyl-1,2,3,4-tetrahydro-naphthalen-1-yl)-1H-indol-7-yl]-methanesulfonamide], for which the inhibition constant Ki was no more than 500 nM.

As to `CCC1(c2c[nH]c3c(NS(C)(=O)=O)cccc23)CCCc2cc(F)cc(F)c21` (single isomer, unassigned) [Example 31A, N-[3-(1-Ethyl-6,8-difluoro-1,2,3,4-tetrahydro-naphthalen-1-yl)-1H-indol-7-yl]-methanesulfonamide], the Ki is no more than 500 nM.

In the case of `CCC1(c2c[nH]c3c(NS(C)(=O)=O)cccc23)CCCc2cc(F)cc(F)c21` (single isomer, unassigned) [Example 31B, N-[3-(1-Ethyl-6,8-difluoro-1,2,3,4-tetrahydro-naphthalen-1-yl)-1H-indol-7-yl]-methanesulfonamide], the inhibition constant Ki was no more than 500 nM.

Regarding `CCC1(c2c[nH]c3ccccc23)CCc2cc(F)ccc21` (centres unmarked) [Example 6, 3-(1-Ethyl-5-fluoro-indan-1-yl)-1H-indole], the Ki is no more than 500 nM.

Consider `CCC1(c2c[nH]c3c(F)cccc23)CCc2cc(F)ccc21` (centres unmarked) [Example 7, 3-(1-Ethyl-5-fluoro-indan-1-yl)-7-fluoro-1H-indole], for which the Ki is no more than 500 nM.

On to `CCC1(c2c[nH]c3c(Br)cccc23)CCc2cc(F)ccc21` (centres unmarked) [Example 8, 7-Bromo-3-(1-ethyl-5-fluoro-indan-1-yl)-1H-indole], for which the inhibition constant Ki was no more than 500 nM.

Consider `CCC1(c2c[nH]c3c(Cl)cccc23)CCc2cc(F)ccc21` (centres unmarked) [Example 9, 7-Chloro-3-(1-ethyl-5-fluoro-indan-1-yl)-1H-indole], for which the Ki is no more than 500 nM.

With `CCc1cccc2c(C3(CC)CCc4cc(F)ccc43)c[nH]c12` (centres unmarked) [Example 10, 7-Ethyl-3-(1-ethyl-5-fluoro-indan-1-yl)-1H-indole], the Ki is no more than 1000 nM.

Regarding `CCC1(c2c[nH]c3c(OC)cccc23)CCc2cc(F)ccc21` (centres unmarked) [Example 12, 3-(1-Ethyl-5-fluoro-indan-1-yl)-7-methoxy-1H-indole], the Ki is no more than 500 nM.

The target of another experiment is T2, human GR (glucocorticoid receptor) (Homo sapiens, UniProt P04150).
T2 construct: expressed in transfected cells; host or cells: 293 cells
T2 sequence (P04150 1-777): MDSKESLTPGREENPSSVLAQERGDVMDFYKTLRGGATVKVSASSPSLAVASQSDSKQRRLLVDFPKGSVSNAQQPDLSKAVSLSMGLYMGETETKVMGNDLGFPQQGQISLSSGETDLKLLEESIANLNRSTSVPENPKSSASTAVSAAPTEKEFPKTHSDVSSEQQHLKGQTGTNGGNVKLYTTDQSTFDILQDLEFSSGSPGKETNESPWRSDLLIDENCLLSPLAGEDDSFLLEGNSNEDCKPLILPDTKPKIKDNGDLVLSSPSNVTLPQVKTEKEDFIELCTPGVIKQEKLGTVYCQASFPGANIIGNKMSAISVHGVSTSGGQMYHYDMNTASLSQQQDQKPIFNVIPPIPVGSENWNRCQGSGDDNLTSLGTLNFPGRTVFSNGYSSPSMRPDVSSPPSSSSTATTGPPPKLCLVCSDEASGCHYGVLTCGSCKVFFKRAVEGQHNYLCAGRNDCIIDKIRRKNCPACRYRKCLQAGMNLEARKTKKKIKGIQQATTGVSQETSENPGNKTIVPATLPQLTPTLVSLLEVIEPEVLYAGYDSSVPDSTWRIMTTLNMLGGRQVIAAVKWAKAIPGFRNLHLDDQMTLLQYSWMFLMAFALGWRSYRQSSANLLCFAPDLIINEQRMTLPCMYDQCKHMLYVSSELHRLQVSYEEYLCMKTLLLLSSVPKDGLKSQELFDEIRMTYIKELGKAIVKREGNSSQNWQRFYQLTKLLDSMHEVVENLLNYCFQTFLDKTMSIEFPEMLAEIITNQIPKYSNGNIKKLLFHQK
Description: Alternative Binding Assay Protocol (Method 2), GR. The note with it: 3H-dexamethasone, 293-GR lysate, racemic mixture unless otherwise indicated. The method, then:
Cell lysates from 293 cells overexpressing human GR (glucocorticoid receptor), AR (androgen receptor), MR (mineralocorticoid receptor) or PR (progesterone receptor) are used for competition binding assays to determine Ki values for test compounds. Briefly, competition binding assays are run in a buffer containing 20 mM Hepes, pH 7.6, 0.2 mM EDTA, 75 mM NaCl, 1.5 mM MgCl2, 20% glycerol, 20 mM sodium molybdate, 0.2 mM DTT, 20 ug/ml aprotinin and 20 ug/ml leupeptin, using either 0.3 nM ^3H-dexamethasone for GR binding, 0.36 nM ^3H-methyltrienolone for AR binding, 0.25 nM ^3H-aldosterone for MR binding, or 0.29 nM ^3H-methyltrienolone for PR binding, and either 20 ug 293-GR lysate, 22 ug 293-AR lysate, 20 ug 293-MR lysate or 40 ug 293-PR lysate per well. Competing compounds are added at various concentraions in half-log increments. Non-specific binding is determined in the presence of 500 nM dexamethasone for GR binding, 500 nM aldosterone for MR binding, or 500 nM methyltrienolone for AR and PR binding,. The binding reaction (140 μl) is incubated for overnight at […], then 70 μl of cold charcoal-dextran buffer (containing per 50 ml of assay buffer, 0.75 g of charcoal and 0.25 g of dextran) is added to each reaction. Plates are mixed 8 minutes on an orbital shaker at 4° C. Plates are then centrifuged at 3,000 rpm at 4° C. for 10 minutes. An aliquot of 120 μl of the mix is transferred to another 96-well plate and 175 μl of Wallac Optiphase “Hisafe 3” scintillation fluid is added to each well. Plates are sealed and shaken vigorously on an orbital shaker. After an incubation of 2 hrs, plates are read in a Wallac Microbeta counter. The data is used to calculate an IC50 and % Inhibition at 10 μM. The Kd for ^3H-dexamethasone for GR binding, ^3H-methyltrienolone for AR binding, ^3H-aldosterone for MR binding, or ^3H-methyltrienolone for PR binding, is determined by saturation binding. The IC50 values for compounds are converted to Ki using Cheng-Prusoff equation and the Kd determined by saturation binding assay.
Take `CN(C)CCCC1(c2c[nH]c3c(NS(C)(=O)=O)cccc23)CCc2cc(F)ccc21` (centres unmarked) [Example 43, N-{3-[1-(3-Dimethylamino-propyl)-5-fluoro-indan-1-yl]-1H-indol-7-yl}-methanesulfonamide]: the inhibition constant Ki was no more than 10000 nM.

Another experiment relates to patients suffering from advanced CHF.
Assay: not given
The note with it: in combination with standard CHF therapy; cited from earlier work.
With `CC(=O)S[C@@H]1CC2=CC(=O)CC[C@]2(C)[C@H]2CC[C@@]3(C)[C@@H](CC[C@@]34CCC(=O)O4)[C@H]12` [spironolactone], the “reduced cardiac related mortality” value was 30% and the “reduced frequency of hospitalization” value is reported as 35%.
